Measurements as given in patent US9187497B2, “Substituted pyrido[3,2-e]pyrrolo[1,2-a]pyrazines as inhibitors of poly(ADP-ribose)polymerase (PARP)” (Takeda Phamaceutical Company Limited, priority 2009, dated 2015).

system: Jurkat cell line; experiment: PARP cellular chemopotentiation assay (MTS cell viability with and without TMZ); assay type: cell-based; details: ratio of EC50 for inhibition of cell viability without and with 100 μM TMZ; Jurkat cells, 96 hours of treatment
Description: Potentiation Factor (PF50) Determination from PARP Cellular Chemopotentiation Assay
Jurkat cell line was maintained according to the supplier (American Type Culture Collection (Rockville, Md.)). Cells were seeded in 96-well tissue culture microplates at 10,000 cells per well and cultured for 24 hours prior to addition of compounds, TMZ (Temozolomide) or DMSO (dimethylsulfoxide) vehicle. After 96 hours of treatment, the conversion of MTS ([3-(4,5-dimethylthiazol-2-yl)-5-(3-carboxymethoxyphenyl)-2-(4-sulfophenyl)-2H-tetrazolium, inner salt], Promega, Madison, Wis.) by metabolically active cells was determined through measuring the OD490 nm with a Spectramax microplate reader (Molecular Devices, San Diego, Calif.). To generate concentration-response curves, cells were treated in duplicate with a range of serial compound dilutions (final DMSO concentration was 0.5%) in the absence or presence of 100 μM TMZ chemoreagent. The percentage of viable cells per well was calculated by correction for background and normalizing against DMSO-treated cells. EC50 values for inhibition of cell viability were calculated using XLfit4 MicroSoft Excel curve-fitting software. Chemopotentiation factor PF50 was calculated as the ratio of EC50 values of cells co-treated without and with TMZ, respectively.

Row | SMILES | PF50
1 | CCOC(=O)c1ccc(N2CCN(Cc3cnc4c(c3)NC(=O)[C@@H]3CCCN43)CC2)nc1 [Compound 6A, (S)-ethyl 6-(4-((6-oxo-5,6,6a,7,8,9-hexahydropyrido[3,2-e]pyrrolo[1,2-a]pyrazin-3-yl)methyl)piperazin-1-yl)nicotinate] | ≧0
2 | CCNC(=O)c1ccc(N2CCN(Cc3cnc4c(c3)NC(=O)[C@@H]3CCCN43)CC2)nc1 [Compound 7, (S)—N-ethyl-6-(4-((6-oxo-5,6,6a,7,8,9-hexahydropyrido[3,2-e]pyrrolo[1,2-a]pyrazin-3-yl)methyl)piperazin-1-yl)nicotinamide] | >10
3 | O=C(NC1CC1)c1ccc(N2CCN(Cc3cnc4c(c3)NC(=O)[C@@H]3CCCN43)CC2)nc1 [Compound 8, (S)—N-cyclopropyl-6-(4-((6-oxo-5,6,6a,7,8,9-hexahydropyrido[3,2-e]pyrrolo[1,2-a]pyrazin-3-yl)methyl)piperazin-1-yl)nicotinamide] | >10
4 | CC(C)NC(=O)c1ccc(N2CCN(Cc3cnc4c(c3)NC(=O)[C@@H]3CCCN43)CC2)nc1 [Compound 9, (S)—N-isopropyl-6-(4-((6-oxo-5,6,6a,7,8,9-hexahydropyrido[3,2-e]pyrrolo[1,2-a]pyrazin-3-yl)methyl)piperazin-1-yl)nicotinamide] | ≧0
5 | O=C1Nc2cc(CN3CCN(c4ccc(F)cc4F)CC3)cnc2N2CCC[C@@H]12 [Compound 15, (S)-3-((4-(2,4-difluorophenyl)piperazin-1-yl)methyl)-6a,7,8,9-tetrahydropyrido[3,2-e]pyrrolo[1,2-a]pyrazin-6(5H)-one] | >500
6 | N#Cc1ccc(N2CCN(Cc3cnc4c(c3)NC(=O)[C@@H]3CCCN43)CC2)c(F)c1F [Compound 18, (S)-2,3-difluoro-4-(4-((6-oxo-5,6,6a,7,8,9-hexahydropyrido[3,2-e]pyrrolo[1,2-a]pyrazin-3-yl)methyl)piperazin-1-yl)benzonitrile] | >10
7 | N#Cc1c(F)cc(N2CCN(Cc3cnc4c(c3)NC(=O)[C@@H]3CCCN43)CC2)cc1F [Compound 19, (S)-2,6-difluoro-4-(4-((6-oxo-5,6,6a,7,8,9-hexahydropyrido[3,2-e]pyrrolo[1,2-a]pyrazin-3-yl)methyl)piperazin-1-yl)benzonitrile] | ≧0
8 | N#Cc1cc(F)c(N2CCN(Cc3cnc4c(c3)NC(=O)[C@@H]3CCCN43)CC2)c(F)c1 [Compound 20, (S)-3,5-difluoro-4-(4-((6-oxo-5,6,6a,7,8,9-hexahydropyrido[3,2-e]pyrrolo[1,2-a]pyrazin-3-yl)methyl)piperazin-1-yl)benzonitrile] | ≧0
9 | N#Cc1ncc(N2CCN(Cc3cnc4c(c3)NC(=O)[C@@H]3CCCN43)CC2)cc1F [Compound 22, (S)-3-fluoro-5-(4-((6-oxo-5,6,6a,7,8,9-hexahydropyrido[3,2-e]pyrrolo[1,2-a]pyrazin-3-yl)methyl)piperazin-1-yl)picolinonitrile] | >10
10 | O=C1Nc2cc(CN3CCN(c4ccccc4)CC3)cnc2N2CCC[C@@H]12 [Compound 23, (S)-3-((4-phenylpiperazin-1-yl)methyl)-6a,7,8,9-tetrahydropyrido[3,2-e]pyrrolo[1,2-a]pyrazin-6(5H)-one] | ≧0
11 | CC(=O)c1ccc(N2CCN(Cc3cnc4c(c3)NC(=O)[C@@H]3CCCN43)CC2)cc1 [Compound 25, (S)-3-((4-(4-acetylphenyl)piperazin-1-yl)methyl)-6a,7,8,9-tetrahydropyrido[3,2-e]pyrrolo[1,2-a]pyrazin-6(5H)-one] | ≧0
12 | O=C1Nc2cc(CN3CCN(c4ccccn4)CC3)cnc2N2CCC[C@@H]12 [Compound 26, (S)-3-((4-(pyridin-2-yl)piperazin-1-yl)methyl)-6a,7,8,9-tetrahydropyrido[3,2-e]pyrrolo[1,2-a]pyrazin-6(5H)-one] | >10
13 | COc1ccc(N2CCN(Cc3cnc4c(c3)NC(=O)[C@@H]3CCCN43)CC2)cc1 [Compound 31, (S)-3-((4-(4-methoxyphenyl)piperazin-1-yl)methyl)-6a,7,8,9-tetrahydropyrido[3,2-e]pyrrolo[1,2-a]pyrazin-6(5H)-one] | ≧0
14 | Cc1ccc(N2CCN(Cc3cnc4c(c3)NC(=O)[C@@H]3CCCN43)CC2)cc1 [Compound 32, (S)-3-((4-p-tolylpiperazin-1-yl)methyl)-6a,7,8,9-tetrahydropyrido[3,2-e]pyrrolo[1,2-a]pyrazin-6(5H)-one] | ≧0
15 | O=C1Nc2cc(CN3CCN(c4cccc(O)c4)CC3)cnc2N2CCC[C@@H]12 [Compound 34, (S)-3-((4-(3-hydroxyphenyl)piperazin-1-yl)methyl)-6a,7,8,9-tetrahydropyrido[3,2-e]pyrrolo[1,2-a]pyrazin-6(5H)-one] | ≧0
16 | O=C1Nc2cc(CN3CCN(c4ccc(O)cc4)CC3)cnc2N2CCC[C@@H]12 [Compound 35, (S)-3-((4-(4-hydroxyphenyl)piperazin-1-yl)methyl)-6a,7,8,9-tetrahydropyrido[3,2-e]pyrrolo[1,2-a]pyrazin-6(5H)-one] | ≧0
17 | O=C1Nc2cc(CN3CCN(c4ccc(C(F)(F)F)cn4)CC3)cnc2N2CCC[C@@H]12 [Compound 36, (S)-3-((4-(5-(trifluoromethyl)pyridin-2-yl)piperazin-1-yl)methyl)-6a,7,8,9-tetrahydropyrido[3,2-e]pyrrolo[1,2-a]pyrazin-6(5H)-one] | ≧0
18 | O=C1Nc2cc(CN3CCN(c4cccc(F)c4)CC3)cnc2N2CCC[C@@H]12 [Compound 38, (S)-3-((4-(3-fluorophenyl)piperazin-1-yl)methyl)-6a,7,8,9-tetrahydropyrido[3,2-e]pyrrolo[1,2-a]pyrazin-6(5H)-one] | ≧0
19 | O=C1Nc2cc(CN3CCN(c4nc5ccccc5[nH]4)CC3)cnc2N2CCC[C@@H]12 [Compound 39, (S)-3-((4-(1H-benzo[d]imidazol-2-yl)piperazin-1-yl)methyl)-6a,7,8,9-tetrahydropyrido[3,2-e]pyrrolo[1,2-a]pyrazin-6(5H)-one] | ≧0
20 | O=C1Nc2cc(CN3CCN(c4ccc(I)cc4)CC3)cnc2N2CCC[C@@H]12 [Compound 40, (S)-3-((4-(4-iodophenyl)piperazin-1-yl)methyl)-6a,7,8,9-tetrahydropyrido[3,2-e]pyrrolo[1,2-a]pyrazin-6(5H)-one] | >10
21 | O=C1Nc2cc(CN3CCN(c4nc5ccccc5o4)CC3)cnc2N2CCC[C@@H]12 [Compound 41, (S)-3-((4-(benzo[d]oxazol-2-yl)piperazin-1-yl)methyl)-6a,7,8,9-tetrahydropyrido[3,2-e]pyrrolo[1,2-a]pyrazin-6(5H)-one] | ≧0
22 | O=C1Nc2cc(CN3CCN(c4cc(F)cc(F)c4)CC3)cnc2N2CCC[C@@H]12 [Compound 46, (S)-3-((4-(3,5-difluorophenyl)piperazin-1-yl)methyl)-6a,7,8,9-tetrahydropyrido[3,2-e]pyrrolo[1,2-a]pyrazin-6(5H)-one] | ≧0
23 | O=C1Nc2cc(CN3CCN(c4ccc(C(F)(F)F)cc4)CC3)cnc2N2CCC[C@@H]12 [Compound 48, (S)-3-((4-(4-(trifluoromethyl)phenyl)piperazin-1-yl)methyl)-6a,7,8,9-tetrahydropyrido[3,2-e]pyrrolo[1,2-a]pyrazin-6(5H)-one] | ≧0
24 | O=C1Nc2cc(CN3CC=C(c4ccc(Cl)cc4)CC3)cnc2N2CCC[C@H]12 [Compound 49, (R)-3-((4-(4-chlorophenyl)-5,6-dihydropyridin-1(2H)-yl)methyl)-6a,7,8,9-tetrahydropyrido[3,2-e]pyrrolo[1,2-a]pyrazin-6(5H)-one] | ≧0
